Source: patent US20060069132A1, “Azolecarboxamide herbicides” (priority 2004, published 2006)

What was measured:
barnyardgrass [1] = experiment: Test B pre-/postemergence herbicide test; format: in vivo, Echinochloa crus-galli; conditions: 0 = no effect, 100 = complete control, preemergence
Summary of the method: (§1)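 Herbicidal effect was judged by eye on a 0–100 scale after plants stood 13 to 15 days in the greenhouse following pre- or postemergence treatment with surfactant-containing formulations.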

Surinam grass = experiment: Test B pre-/postemergence herbicide test; format: in vivo, Urochloa decumbens; conditions: for Surinam Grass plant response rating: postemergence, scale 0 (no effect) to 100 (complete control)
Summary of the method: (§2)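 Pre: seeds sown, then sprayed. Post: 1–4-leaf plants (2–18 cm) sprayed at the same time. Paddy: flooded, treated at 2-leaf stage. Formulation: non-phytotoxic solvent with surfactant. Greenhouse 13–15 days; visual 0–100 score relative to controls.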

cocklebur = experiment: Test B pre-/postemergence herbicide test; format: in vivo, Xanthium strumarium; conditions: for Cocklebur plant response rating: postemergence, scale 0 (no effect) to 100 (complete control)
Summary of the method: as §1

corn = experiment: Test B pre-/postemergence herbicide test; format: in vivo, Zea mays; conditions: for Corn plant response rating: postemergence, scale 0 (no effect) to 100 (complete control)
Summary of the method: as §2

large crabgrass = experiment: Test B pre-/postemergence herbicide test; format: in vivo, Digitaria sanguinalis; conditions: for Crabgrass, Large plant response rating: postemergence, scale 0 (no effect) to 100 (complete control)
Summary of the method: as §2

giant foxtail = experiment: Test B pre-/postemergence herbicide test; format: in vivo, Setaria faberi; conditions: for Foxtail, Giant plant response rating: postemergence, scale 0 (no effect) to 100 (complete control)
Summary of the method: as §2

lambsquarters = experiment: Test B pre-/postemergence herbicide test; format: in vivo, Chenopodium album; conditions: for Lambsquarters plant response rating: postemergence, scale 0 (no effect) to 100 (complete control)
Summary of the method: as §2

morningglory = experiment: Test B pre-/postemergence herbicide test; format: in vivo, Ipomoea coccinea
Summary of the method: as §1

pigweed = experiment: Test B pre-/postemergence herbicide test; format: in vivo, Amaranthus retroflexus; conditions: for Pigweed plant response rating: postemergence, scale 0 (no effect) to 100 (complete control)
Summary of the method: as §2

rice [2] = experiment: Test B pre-/postemergence herbicide test; format: in vivo, Oryza sativa; conditions: 0 = no effect, 100 = complete control, preemergence
Summary of the method: as §2

velvetleaf = experiment: Test B pre-/postemergence herbicide test; format: in vivo, Abutilon theophrasti; conditions: for Velvetleaf plant response rating: postemergence, scale 0 (no effect) to 100 (complete control)
Summary of the method: as §2

blackgrass = experiment: Test B postemergence herbicide test; format: in vivo, Alopecurus myosuroides; conditions: postemergence, visual rating, scale 0 (no effect) to 100 (complete control)
Summary of the method: (§3)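 Treated at 2-leaf (paddy) or 1–4-leaf, 2–18 cm (postemergence); greenhouse 13–15 d; visual score vs control, 0 none to 100 complete control; dash = not tested.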

wheat = experiment: Test B postemergence herbicide test; format: in vivo, Triticum aestivum; parameters: key to Wheat plant response rating: 0 = no effect, 100 = complete control; conditions: postemergence, visual rating, scale 0 (no effect) to 100 (complete control)
Summary of the method: (§4)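 Plants grow to 1- to 4-leaf stage (2–18 cm) for postemergence spraying, or to 2-leaf stage for the paddy test. Formulated compound is applied. Greenhouse holding lasts 13–15 days. Response is scored visually relative to controls, 0 no effect to 100 complete control; a dash means no result.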

wild oat = experiment: Test B postemergence herbicide test; format: in vivo, Avena fatua; conditions: postemergence, visual rating, scale 0 (no effect) to 100 (complete control)
Summary of the method: as §4

rice [3] = experiment: Test B flooded paddy test; format: in vivo, Oryza sativa; conditions: 1000 g ai/ha, scale 0 to 100 (0 no effect, 100 complete control)
Summary of the method: as §4

[4] = test system: small flower umbrella sedge; experiment: Test B flooded paddy test; format: in vivo, Cyperus difformis; conditions: 1000 g ai/ha, scale 0 to 100 (0 no effect, 100 complete control)
Summary of the method: as §3

ducksalad [5] = experiment: Test B flooded paddy test; format: in vivo, Heteranthera limosa; conditions: 1000 g ai/ha, scale 0 to 100 (0 no effect, 100 complete control)
Summary of the method: as §3

barnyardgrass [6] = experiment: Test B flooded paddy test; format: in vivo, Echinochloa crus-galli; conditions: 1000 g ai/ha, scale 0 to 100 (0 no effect, 100 complete control)
Summary of the method: as §3

rice [7] = experiment: Test C flooded paddy test; format: in vivo, Oryza sativa
Summary of the method: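 Plants were grown to the 1- to 4-leaf stage (2–18 cm) and then treated postemergence, or grown to the 2-leaf stage for the flooded paddy test. They were held in a greenhouse for 12 to 14 days and then scored by eye against controls, where 0 is no effect and 100 is complete control.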

[8] = test system: smallflower umbrella sedge; experiment: Test C flooded paddy test; format: in vivo, Cyperus difformis
ducksalad [9] = experiment: Test C flooded paddy test; format: in vivo, Heteranthera limosa
barnyardgrass [10] = experiment: Test C flooded paddy test; format: in vivo, Echinochloa crus-galli
Summary of the method: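 Visual rating, 0 (no effect) to 100 (complete control), vs. controls at 12–14 d in greenhouse. Postemergence: 1–4-leaf plants, 2–18 cm. Paddy: flooded, barnyardgrass at 2-leaf stage.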

[11] = 125 g ai/ha, 0 = no effect, 100 = complete control, preemergence
[12] = 500 g ai/ha, visual rating, 0 = no effect, 100 = complete control, preemergence
[13] = 62 g ai/ha, scale 0 to 100 (0 no effect, 100 complete control)
[14] = 125 g ai/ha, scale 0 to 100 (0 no effect, 100 complete control)
[15] = 250 g ai/ha, scale of 0 to 100, 0 is no effect, 100 is complete control
[16] = 500 g ai/ha, visual rating after 12 to 14 days, scale 0 to 100 (0 no effect, 100 complete control)

Q: How did the “Barnyardgrass plant response rating (0 to 100 scale)” value (barnyardgrass [1]; 125 g ai/ha) turn out when `CCc1cn(C(C)(C)C)nc1C(=O)Nc1cc(C(=O)N(C)CC)ccn1` [Compound 235] was run?
A: The value was 10.

Q: And the “Plant response rating, Barnyardgrass” value (barnyardgrass [1]; 500 g ai/ha, visual rating)?
A: Its value is 50.

Q: What about the “Surinam Grass plant response rating (0 to 100 scale)” value (Surinam grass; [11]) of the same molecule?
A: The value was 10.

Q: What about the “Plant response rating, Surinam Grass” value (Surinam grass; [12]) of the same molecule?
A: Its value is 60.

Q: And the “Surinam Grass plant response rating” value (Surinam grass; 125 g ai/ha, visual rating)?
A: The value was 10.

Q: And the “Surinam Grass plant response rating” value (Surinam grass; 500 g ai/ha, visual rating)?
A: The value was 10.

Q: And the “Cocklebur plant response rating (0 to 100 scale)” value (cocklebur; [11])?
A: The value was 0.

Q: And the “Plant response rating, Cocklebur” value (cocklebur; [12])?
A: Its value is 0.

Q: What about the “Cocklebur plant response rating” value (cocklebur; 125 g ai/ha, visual rating) of the same molecule?
A: Its value is 0.

Q: What about the “Cocklebur plant response rating” value (cocklebur; 500 g ai/ha, visual rating) of the same molecule?
A: Its value is 30.

Q: What about the “Corn plant response rating (0 to 100 scale)” value (corn; [11]) of the same molecule?
A: The value was 0.

Q: And the “Plant response rating, Corn” value (corn; [12])?
A: Its value is 20.

Q: What about the “Corn plant response rating” value (corn; 125 g ai/ha, visual rating) of the same molecule?
A: The value was 20.

Q: And the “Corn plant response rating” value (corn; 500 g ai/ha, visual rating)?
A: The value was 40.

Q: What about the “Crabgrass, Large plant response rating (0 to 100 scale)” value (large crabgrass; [11]) of the same molecule?
A: Its value is 40.

Q: And the “Plant response rating, Crabgrass, Large” value (large crabgrass; [12])?
A: Its value is 90.

Q: What about the “Crabgrass, Large plant response rating” value (large crabgrass; 125 g ai/ha, visual rating) of the same molecule?
A: The value was 10.

Q: What about the “Crabgrass, Large plant response rating” value (large crabgrass; 500 g ai/ha, visual rating) of the same molecule?
A: Its value is 20.

Q: What about the “Foxtail, Giant plant response rating (0 to 100 scale)” value (giant foxtail; [11]) of the same molecule?
A: Its value is 0.

Q: What about the “Plant response rating, Foxtail, Giant” value (giant foxtail; [12]) of the same molecule?
A: Its value is 50.

Q: What about the “Foxtail, Giant plant response rating” value (giant foxtail; 125 g ai/ha, visual rating) of the same molecule?
A: The value was 10.

Q: What about the “Foxtail, Giant plant response rating” value (giant foxtail; 500 g ai/ha, visual rating) of the same molecule?
A: The value was 30.

Q: What about the “Lambsquarters plant response rating (0 to 100 scale)” value (lambsquarters; [11]) of the same molecule?
A: The value was 50.

Q: And the “Plant response rating, Lambsquarters” value (lambsquarters; [12])?
A: The value was 90.

Q: And the “Lambsquarters plant response rating” value (lambsquarters; 125 g ai/ha, visual rating)?
A: The value was 40.

Q: What about the “Lambsquarters plant response rating” value (lambsquarters; 500 g ai/ha, visual rating) of the same molecule?
A: The value was 50.

Q: What about the “Morningglory plant response rating (0 to 100 scale)” value (morningglory; [11]) of the same molecule?
A: Its value is 10.

Q: And the “Plant response rating, Morningglory” value (morningglory; [12])?
A: Its value is 10.

Q: And the “Morningglory plant response rating” value (morningglory; postemergence, 500 g ai/ha, visual rating, scale 0 (no effect) to 100 (complete control))?
A: The value was 70.

Q: What about the “Pigweed plant response rating (0 to 100 scale)” value (pigweed; [11]) of the same molecule?
A: Its value is 30.

Q: And the “Plant response rating, Pigweed” value (pigweed; [12])?
A: Its value is 100.

Q: What about the “Pigweed plant response rating” value (pigweed; 125 g ai/ha, visual rating) of the same molecule?
A: The value was 30.

Q: What about the “Pigweed plant response rating” value (pigweed; 500 g ai/ha, visual rating) of the same molecule?
A: The value was 40.

Q: What about the “Rice plant response rating (0 to 100 scale)” value (rice [2]; 125 g ai/ha) of the same molecule?
A: Its value is 0.

Q: What about the “Plant response rating, Rice” value (rice [2]; 500 g ai/ha, visual rating) of the same molecule?
A: Its value is 20.

Q: And the “Velvetleaf plant response rating (0 to 100 scale)” value (velvetleaf; [11])?
A: Its value is 10.

Q: What about the “Plant response rating, Velvetleaf” value (velvetleaf; [12]) of the same molecule?
A: The value was 30.

Q: And the “Velvetleaf plant response rating” value (velvetleaf; 125 g ai/ha, visual rating)?
A: The value was 20.

Q: What about the “Velvetleaf plant response rating” value (velvetleaf; 500 g ai/ha, visual rating) of the same molecule?
A: Its value is 30.

Q: What about the “Blackgrass plant response rating” value (blackgrass; 125 g ai/ha) of the same molecule?
A: The value was 0.

Q: And the “Blackgrass plant response rating” value (blackgrass; 500 g ai/ha)?
A: The value was 20.

Q: What about the “Wheat plant response rating” value (wheat; 125 g ai/ha) of the same molecule?
A: Its value is 0.

Q: And the “Wheat plant response rating” value (wheat; 500 g ai/ha)?
A: Its value is 20.

Q: What about the “Oat, Wild plant response rating” value (wild oat; 125 g ai/ha) of the same molecule?
A: Its value is 10.

Q: And the “Oat, Wild plant response rating” value (wild oat; 500 g ai/ha)?
A: Its value is 20.

Q: And the “Rice plant response rating” value (rice [3])?
A: Its value is 40.

Q: And the “Sedge, Umbrella plant response rating” value [4]?
A: The value was 80.

Q: What about the “Ducksalad plant response rating” value (ducksalad [5]) of the same molecule?
A: Its value is 90.

Q: And the “Barnyardgrass plant response rating” value (barnyardgrass [6])?
A: Its value is 40.

Q: And the “Rice plant response rating” value (rice [7]; [13])?
A: The value was 0.

Q: And the “Rice plant response rating” value (rice [7]; [14])?
A: The value was 0.

Q: And the “Rice plant response rating” value (rice [7]; [15])?
A: The value was 25.

Q: What about the “Plant response rating, Rice” value (rice [7]; [16]) of the same molecule?
A: The value was 35.

Q: And the “Sedge, Umbrella plant response rating” value [8, 13]?
A: The value was 0.

Q: And the “Sedge, Umbrella plant response rating” value [8, 14]?
A: The value was 50.

Q: What about the “Sedge, Umbrella plant response rating” value [8, 15] of the same molecule?
A: The value was 55.

Q: And the “Plant response rating, Sedge, Umbrella” value [8, 16]?
A: Its value is 80.

Q: What about the “Ducksalad plant response rating” value (ducksalad [9]; [13]) of the same molecule?
A: Its value is 0.

Q: What about the “Ducksalad plant response rating” value (ducksalad [9]; [14]) of the same molecule?
A: The value was 0.

Q: And the “Ducksalad plant response rating” value (ducksalad [9]; [15])?
A: Its value is 0.

Q: And the “Plant response rating, Ducksalad” value (ducksalad [9]; [16])?
A: The value was 75.

Q: What about the “Barnyardgrass plant response rating” value (barnyardgrass [10]; [13]) of the same molecule?
A: The value was 0.

Q: What about the “Barnyardgrass plant response rating” value (barnyardgrass [10]; [14]) of the same molecule?
A: Its value is 0.

Q: What about the “Barnyardgrass plant response rating” value (barnyardgrass [10]; [15]) of the same molecule?
A: The value was 0.

Q: And the “Plant response rating, Barnyardgrass” value (barnyardgrass [10]; [16])?
A: Its value is 0.
